This note sets out measurements from patent US10106529B2, “Compounds that modulate intracellular calcium” (CalciMedica, Inc., priority 2011, dated 2018).

One assay concerns the target T1, Orai1/STIM1 (Homo sapiens, UniProt Q96D31).
T1 construct: c-myc (C); expressed in transfected cells; host or cells: HEK-293 cells stably expressing recombinant human STIM1 and Orai1
Kind of assay: Fluorescence-based assay of store-operated calcium entry in Orai1/STIM1 stable cells. It is filed as cell-based. On the set-up: key to Orai1/STIM1 (IC50, μmol): A, IC50 < 0.6 μM; B, IC50 = 0.6-1.2 μM; C, IC50 > 1.2 μM; — no fit. As to conditions: HEK-293 cells stably expressing human STIM1 and Orai1, inhibition of Peak-Basal fluorescence signal after calcium addition; for IC50: read-out: Orai1/STIM1 (IC50, μmol). From the text: (§1) Fluorescence-based assays are used for screening the compounds described herein, such as compounds of Formulas (I), (IA), (II), (IIA), (III), (IIIA), (IV), (IVA), (V), (VA), (VI), (VIA), (VII), (VIIA), (VIII), (VIIIA), (IX), (IXA), (X), (XI), (XIA), (XII), or (XIIA) which modulate intracellular calcium.
A. Fluorescence-Based Assay of Store-Operated Calcium Entry in Orai1/STIM1 Stable Cells.
Cells stably expressing recombinant human STIM1 and Orai1 are generated by transfecting a human Orai1 expression plasmid (pcDNA3.1-Orai1-cmyc) into HEK-293 cells stably overexpressing human STIM1 (Roos et al. 2005 JCB 169(3): 435-445). Colonies of cells stably expressing both STIM1 and Orai1 proteins are selected and then subcloned by limiting dilution. Cells were cultured at 37° C./6% CO2 in complete medium with 10% FBS and appropriate selection markers.
The day prior to performing the assay Orai1/STIM1 stable cells are plated in 50 μL of complete medium at 90-95% confluence in a 384 well plate. Cells are grown at 37° C./6% CO2 overnight. On the day of the assay, 1.5 μM fluo-4-AM (Invitrogen) in complete medium is added to the cells, which are then incubated for 1 hour at RT. Cells are washed once in Ca^2+-free HBSS (Hank's buffered saline solution) and 35 μl of Ca^2+-free HBSS is added to each well. Test compounds are added to wells in a 10 μL Ca^2+-free HBSS solution, prepared at 4.5× the desired final concentration, and incubated for 30 minutes at RT. The initial baseline fluorescence signal is then measured with a FLIPR^384 (Molecular Devices) plate reader. Calcium entry is initiated by adding 5 μl of 10×CaCl2 (10 mM) in HBSS, and changes in cellular fluorescence are measured with the FLIPR^384 plate reader. In each well, the magnitude of the fluorescence signal as a result of calcium entry into the cell is determined by calculating the difference between the peak fluorescence signal measured after calcium addition and the initial baseline fluorescence signal (designated Peak-Basal). IC50 values are typically calculated as the concentration that inhibited 50% of the Peak-Basal signal.

Another assay concerns RBL-2H3 cells. Description: Fluorescence-based assay of store-operated calcium entry in RBL-2H3 cells. The assay is classed as cell-based, rat. The note with it: Rattus norvegicus, thapsigargin, inhibition of Upslope of fluorescence after calcium addition, read-out: RBL-2H3 (IC50, μmol). As for the experimental part:
as §1
B. Fluorescence-Based Assay of Store-Operated Calcium Entry in RBL-2H3 Cells.
RBL-2H3 cells are obtained from ATCC and maintained in complete medium with 10% FBS at 37° C./6% CO2.
The day prior to performing the assay, RBL-2H3 cells are plated in 50 μL of complete medium in a 384 well plate. Cells are grown at 37° C./6% CO2 overnight and grow to 50-60% confluence by the next day. On the assay day, 1.5 µM Fluo-4-AM dye (Invitrogen) in complete medium is added and incubated for 1 hour at RT. Cells are washed twice in Ca^2+-free HBSS buffer and 35 μL Ca^2+-free HBSS buffer is added to each well. 10 μL of a test compound prepared in a Ca^2+-free HBSS solution at 4.5× of the desired concentration is added to a well and incubated for 5 minutes at RT. 10 μL of thapsigargin prepared in a Ca^2+-free HBSS solution at 5.5× of the desired concentration (5.5 uM) is added to each well and incubated for an additional 25 minutes. The initial baseline fluorescence signal is measured with a FLIPR^384 (Molecular Devices) plate reader. 5 μL of 12× calcium in HBSS (12 mM) is added and changes in cellular fluorescence are measured with the FLIPR^384 plate reader. In each well, the change in the fluorescent signal as a function of time due to calcium entry into the cell is determined by calculating the difference between the fluorescent signal measured 7 seconds after calcium addition and the initial baseline fluorescence signal at time zero (t=0). This parameter is designated Upslope. The IC50 value is calculated as the concentration at which 50% of the Upslope is inhibited.

Some results are limits rather than exact numbers.

T1 sequence (Q96D31 whole entry): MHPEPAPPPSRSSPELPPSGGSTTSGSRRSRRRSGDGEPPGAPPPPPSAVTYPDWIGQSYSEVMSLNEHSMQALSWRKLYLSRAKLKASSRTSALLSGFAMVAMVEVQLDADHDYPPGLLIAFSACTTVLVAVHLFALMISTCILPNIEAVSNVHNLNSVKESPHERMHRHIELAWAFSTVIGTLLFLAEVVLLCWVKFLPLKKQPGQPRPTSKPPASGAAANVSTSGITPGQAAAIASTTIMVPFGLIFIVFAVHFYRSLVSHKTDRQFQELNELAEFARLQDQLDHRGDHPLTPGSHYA

For `Cc1c(F)cccc1CNc1ccc(-n2nc(C(F)(F)F)cc2C)cn1` [Compound 122, N-(3-fluoro-2-methylbenzyl)-5-(5-methyl-3-(trifluoromethyl)-1H-pyrazol-1-yl)pyridin-2-amine], on Orai1/STIM1, the “Orai1/STIM1 (IC50, μmol)” value was “—”. Further, in the assay with RBL-2H3 cells, the IC50 was less than 600 nM.

Turning to `Cc1cc(C(F)(F)F)nn1-c1ccc(NCc2c(F)cncc2F)nc1` [Compound 124, N-((3,5-difluoropyridin-4-yl)methyl)-5-(5-methyl-3-(trifluoromethyl)-1H-pyrazol-1-yl)pyridin-2-amine], the IC50 is 600 to 1200 nM at Orai1/STIM1 and less than 600 nM in the assay with RBL-2H3 cells.

As to `Fc1cccc(F)c1CNc1ncc(Oc2ccccc2C(F)(F)F)cn1` [Compound 126, N-(2,6-difluorobenzyl)-5-(2-(trifluoromethyl)phenoxy)pyrimidin-2-amine], the IC50 on Orai1/STIM1 and in the assay on RBL-2H3 cells was less than 600 nM each time.

With `COc1cc(F)c(CNc2ncc(-c3cc4c(cc3C)OC(F)(F)O4)cn2)c(F)c1` [Compound 127, N-(2,6-difluoro-4-methoxybenzyl)-5-(2,2-difluoro-6-methylbenzo[d][1,3]dioxol-5-yl)pyrimidin-2-amine], the IC50 at Orai1/STIM1 and in the assay with RBL-2H3 cells was less than 600 nM each time.

For `COc1cc(C)c(-c2cnc(NCc3c(F)cccc3F)nc2)cn1` [Compound 128, N-(2,6-difluorobenzyl)-5-(6-methoxy-4-methylpyridin-3-yl)pyrimidin-2-amine], the IC50 on Orai1/STIM1 and with RBL-2H3 cells was less than 600 nM throughout.

For the molecule `Cc1cc(Cl)ncc1-c1cnc(NCc2c(F)cc(Cl)cc2F)nc1` [Compound 129, N-(4-chloro-2,6-difluorobenzyl)-5-(6-chloro-4-methylpyridin-3-yl)pyrimidin-2-amine], the IC50 at Orai1/STIM1 and in the assay with RBL-2H3 cells was less than 600 nM throughout.

Consider `Fc1cc(F)c(CNc2ccc(Oc3ccccc3C(F)(F)F)cn2)c(F)c1` [Compound 134], for which the IC50 at Orai1/STIM1 and in the assay with RBL-2H3 cells was less than 600 nM each time.

Consider `Fc1cccc(F)c1CNc1ccc(Oc2ccccc2C(F)(F)F)cn1` [Compound 135], for which the IC50 at Orai1/STIM1 and with RBL-2H3 cells was less than 600 nM in each case.

Consider `Cn1nc(C(F)(F)F)cc1-c1ccc(NCc2ccccc2F)nc1N` [Compound 143, N^2-(2-fluorobenzyl)-5-(1-methyl-3-(trifluoromethyl)-1H-pyrazol-5-yl)pyridine-2,6-diamine], for which the IC50 at Orai1/STIM1 and with RBL-2H3 cells was less than 600 nM each time.
